Laboratory results from publication PMC8881610 (Nature Communications, 2022).
Positions count from the first letter of the chain named.

Experiments:
Assay in all cases: cAMP accumulation assay (LANCE Ultra cAMP kit), GIPR WT, mutant or modified constructs
Type in all cases: cell-based
Design in all cases: acylated tirzepatide to the full-length or modified; Flag; expressed in transfected cells; host or cells: HEK293T
[1] = biological target: T1, GIPR (Homo sapiens, UniProt P48546, D191A/Q138A/R196A); conditions: GIPR Q138A/D191A/R196A, HEK293T
T1 sequence (P48546 22-466 Q138A/D191A/R196A): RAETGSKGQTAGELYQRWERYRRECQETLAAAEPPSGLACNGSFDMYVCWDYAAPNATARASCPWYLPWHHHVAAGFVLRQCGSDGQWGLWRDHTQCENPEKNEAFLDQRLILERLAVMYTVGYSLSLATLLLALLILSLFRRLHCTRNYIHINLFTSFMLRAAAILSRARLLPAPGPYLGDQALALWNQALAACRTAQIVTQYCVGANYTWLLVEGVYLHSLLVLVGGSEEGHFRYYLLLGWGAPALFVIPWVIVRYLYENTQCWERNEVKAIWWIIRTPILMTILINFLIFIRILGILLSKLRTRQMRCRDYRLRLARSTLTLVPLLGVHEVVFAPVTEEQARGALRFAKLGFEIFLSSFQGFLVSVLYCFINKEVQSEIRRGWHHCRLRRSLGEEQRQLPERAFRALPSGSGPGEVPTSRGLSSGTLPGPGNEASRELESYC
Summary of the method: (§1)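 HEK293T cells transiently transfected with human GIPR WT or mutant constructs (pcDNA3.1), used after 24 h. The cells were stimulated with peptide agonists for 40 min at RT in HBSS with 5 mM HEPES, 0.1% BSA or casein, and 0.5 mM IBMX. cAMP was read by LANCE Ultra TR-FRET (Eu-cAMP tracer/ULight anti-cAMP, 1 h RT, 620/650 nm).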

[2] = biological target: T2, GIPR (Homo sapiens, UniProt P48546, R192A); conditions: GIPR R192A, HEK293T
T2 sequence (P48546 22-466 R192A): T1 sequence (P48546 22-466 Q138A/D191A/R196A) with A117Q, A170D, R171A, A175R
Summary of the method: as §1

[3] = biological target: T3, GIPR (Homo sapiens, UniProt P48546, W90A); conditions: HEK-293T, GIPR W90A; HEK293T
T3 sequence (P48546 22-466 W90A): T1 sequence (P48546 22-466 Q138A/D191A/R196A) with W69A, A117Q, A170D, A175R
Summary of the method: as §1

[4] = read-out: cAMP pEC50 (converted)

CCCCCCCCCCCCCCCC(=O)N[C@@H](CCC(=O)NCCCC[C@H](NC(=O)[C@H](CC(=O)O)NC(=O)[C@H](CO)NC(=O)[C@@H](NC(=O)[C@H](Cc1ccccc1)NC(=O)[C@@H](NC(=O)CNC(=O)[C@H](CCC(N)=O)NC(=O)C(C)(C)NC(=O)[C@@H](N)Cc1c[nH]cn1)[C@@H](C)O)[C@@H](C)O)C(=O)N[C@@H](CO)C(=O)N[C@@H](CCCCN)C(=O)N[C@@H](Cc1ccc(O)cc1)C(=O)N[C@@H](CC(C)C)C(=O)N[C@@H](CC(=O)O)C(=O)N[C@@H](CCC(=O)O)C(=O)N[C@@H](CCCNC(=N)N)C(=O)N[C@@H](C)C(=O)N[C@@H](C)C(=O)N[C@@H](CCC(N)=O)C(=O)N[C@@H](CC(=O)O)C(=O)N[C@@H](Cc1ccccc1)C(=O)N[C@H](C(=O)N[C@@H](CCC(N)=O)C(=O)N[C@@H](Cc1c[nH]c2ccccc12)C(=O)N[C@@H](CC(C)C)C(=O)N[C@@H](CC(C)C)C(=O)N[C@@H](CC(=O)O)C(=O)NCC(=O)NCC(=O)N1CCC[C@H]1C(=O)N[C@@H](CO)C(=O)N[C@@H](CO)C(=O)NCC(=O)N[C@@H](C)C(=O)N1CCC[C@H]1C(=O)N1CCC[C@H]1C(=O)N1CCC[C@H]1C(=O)N[C@@H](CO)C(N)=O)C(C)C)C(=O)O [Peptide 20]
EC50 [1, 4]: 30.2 nM | Emax ([1]; HEK-293T): 56.3 ± 12.2% | EC50 [2, 4]: 0.0302 nM | Emax ([2]; HEK-293T): 101 ± 1.91% | Emax [3]: 98 ± 4.59%
